PubChem BioAssay (NCI)
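Cells were grown in 96-well plates and exposed to each compound for 48 hours at five concentrations; endpoints were interpolated linearly between bracketing concentrations, or set to the highest concentration if not reached. TGI: total growth inhibition.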 Where a SMILES comes first, the peptide text is derived from it. The star is where a group is joined. Cbz = O=C(OCc1ccccc1)*

Legend:
Assay in all cases: growth of human tumour cells (NCI), 48 h
[1] = test system: RXF 393 renal
[2] = test system: MDA-MB-231 breast
[3] = test system: SF-268 CNS
[4] = test system: KM12 colon
[5] = test system: HCT-116 colon
[6] = test system: U251 CNS
[7] = test system: UACC-62 melanoma
[8] = test system: HL-60(TB) leukemia
[9] = test system: UO-31 renal
[10] = test system: MCF7 breast
[11] = test system: OVCAR-5 ovarian
[12] = test system: EKVX NSCLC
[13] = test system: OVCAR-4 ovarian
[14] = test system: SF-539 CNS
[15] = test system: OVCAR-8 ovarian
[16] = test system: SK-MEL-2 melanoma
[17] = test system: BT-549 breast

`N#Cc1sc2c(c1OC(=O)c1ccc(Cl)cc1Cl)c(=O)n(-c1ccccc1)c(=S)n2-c1ccccc1` showed a TGI [1] of 42 µM, a TGI [2] of 75.1 µM and a TGI [3] of over 100 µM. It also gave a TGI [4] of 89.7 µM, a TGI [5] of 39.2 µM and a TGI [6] of 75.8 µM. The TGI [7] was 40.4 µM, the TGI [8] was 46.7 µM and the TGI [9] was 0.424 µM. For the same compound, the TGI [10] was 73.4 µM, the TGI [11] was over 100 µM and the TGI [12] was 65.1 µM. It also gave a TGI [13] of 66.5 µM, a TGI [14] of 39.2 µM and a TGI [15] of over 100 µM.

With `CCOC(=O)[C@@]1(C(C)=O)CC(C)=C(C)C[S@]1=O` the TGI [1] was over 100 µM, the TGI [2] was over 100 µM and the TGI [3] was over 100 µM. For the same compound, the TGI [4] was over 100 µM, the TGI [5] was over 100 µM and the TGI [6] was over 100 µM. It also gave a TGI [7] of over 100 µM, a TGI [9] of over 100 µM and a TGI [10] of over 100 µM. The TGI [11] was over 100 µM, the TGI [12] was over 100 µM and the TGI [16] was over 100 µM. The TGI [13] was over 100 µM, the TGI [15] was over 100 µM and the TGI [17] was over 100 µM.

Work on `O=C1CCC2(CC1CCS(=O)c1ccccc1)OCCO2` (stereo not given) yielded a TGI [1] of over 100 µM, a TGI [2] of over 100 µM and a TGI [3] of over 100 µM. For the same compound, the TGI [4] was over 100 µM, the TGI [6] was over 100 µM and the TGI [7] was over 100 µM. For the same compound, the TGI [8] was over 100 µM, the TGI [9] was over 100 µM and the TGI [10] was over 100 µM. For the same compound, the TGI [11] was over 100 µM, the TGI [12] was over 100 µM and the TGI [16] was over 100 µM. For the same compound, the TGI [13] was over 100 µM, the TGI [14] was over 100 µM and the TGI [15] was over 100 µM.

Compound `Cc1nc(C)c(N2CCN(S(N)(=O)=O)CC2)c(=O)[nH]1` has a TGI [1] of over 100 µM, a TGI [2] of over 100 µM and a TGI [3] of over 100 µM. The TGI [4] was over 100 µM, the TGI [5] was over 100 µM and the TGI [6] was over 100 µM. The TGI [7] was over 100 µM, the TGI [8] was over 100 µM and the TGI [9] was over 100 µM. The TGI [10] was over 100 µM, the TGI [12] was over 100 µM and the TGI [13] was over 100 µM. It also gave a TGI [14] of over 100 µM, a TGI [15] of over 100 µM and a TGI [17] of over 100 µM.

Compound `CC(C)=NOC(=O)OC[C@H]1O[C@@H](n2cnc3c(N)ncnc32)C(O)C1O` (stereo not given in full) has a TGI [1] of over 100 µM, a TGI [2] of over 100 µM and a TGI [3] of over 100 µM. For the same compound, the TGI [4] was over 100 µM, the TGI [6] was over 100 µM and the TGI [8] was over 100 µM. The TGI [9] was over 100 µM, the TGI [10] was over 100 µM and the TGI [11] was over 100 µM. For the same compound, the TGI [12] was over 100 µM, the TGI [16] was over 100 µM and the TGI [13] was over 100 µM. The TGI [14] was over 100 µM, the TGI [15] was over 100 µM and the TGI [17] was over 100 µM.

`COc1ccc2c(=O)c3c([nH]c2c1)OCC3=O` gave a TGI [1] of over 100 µM, a TGI [2] of over 100 µM and a TGI [3] of over 100 µM. It also gave a TGI [4] of over 100 µM, a TGI [5] of over 100 µM and a TGI [6] of over 100 µM. The TGI [7] was over 100 µM, the TGI [8] was over 100 µM and the TGI [9] was over 100 µM. For the same compound, the TGI [10] was over 100 µM, the TGI [12] was over 100 µM and the TGI [16] was over 100 µM. For the same compound, the TGI [13] was over 100 µM, the TGI [14] was over 100 µM and the TGI [15] was over 100 µM. It also gave a TGI [17] of over 100 µM.

`Cc1cc(C#N)c(Nc2ccc(F)cc2[N+](=O)[O-])s1` gave a TGI [1] of over 100 µM, a TGI [2] of 68.8 µM and a TGI [3] of over 100 µM. For the same compound, the TGI [4] was over 100 µM, the TGI [5] was over 100 µM and the TGI [6] was over 100 µM. The TGI [7] was over 100 µM, the TGI [9] was over 100 µM and the TGI [11] was over 100 µM. For the same compound, the TGI [12] was over 100 µM, the TGI [13] was over 100 µM and the TGI [14] was over 100 µM. For the same compound, the TGI [15] was over 100 µM and the TGI [17] was over 100 µM.

For `NNC(=O)CC(=O)Nc1ccc(S(=O)(=O)c2ccc(NC(=O)CC(=O)NN)cc2)cc1`, the TGI [1] was over 100 µM, the TGI [2] was over 100 µM and the TGI [3] was over 100 µM. It also gave a TGI [4] of over 100 µM, a TGI [5] of over 100 µM and a TGI [6] of over 100 µM. For the same compound, the TGI [7] was over 100 µM, the TGI [8] was over 100 µM and the TGI [9] was over 100 µM. The TGI [11] was over 100 µM, the TGI [12] was over 100 µM and the TGI [16] was over 100 µM. The TGI [13] was over 100 µM, the TGI [14] was over 100 µM and the TGI [15] was over 100 µM. The TGI [17] was over 100 µM.

With `Cc1cn(C2CC(N=[N+]=[N-])C(CO)O2)c(=O)n(CCCCBr)c1=O` (stereo not given) the TGI [1] was over 100 µM, the TGI [2] was over 100 µM and the TGI [3] was over 100 µM. It also gave a TGI [4] of over 100 µM, a TGI [5] of over 100 µM and a TGI [6] of 44.6 µM. The TGI [7] was over 100 µM, the TGI [9] was over 100 µM and the TGI [10] was over 100 µM. The TGI [11] was over 100 µM, the TGI [12] was over 100 µM and the TGI [16] was over 100 µM. The TGI [13] was over 100 µM, the TGI [14] was over 100 µM and the TGI [15] was over 100 µM. For the same compound, the TGI [17] was over 100 µM.

`Cc1oc2nc(N(C)C)nc(NN)c2c1C` showed a TGI [1] of over 100 µM, a TGI [2] of over 100 µM and a TGI [3] of over 100 µM. For the same compound, the TGI [4] was over 100 µM, the TGI [5] was over 100 µM and the TGI [6] was over 100 µM. For the same compound, the TGI [7] was over 100 µM, the TGI [8] was over 100 µM and the TGI [9] was over 100 µM. For the same compound, the TGI [11] was over 100 µM, the TGI [12] was over 100 µM and the TGI [16] was over 100 µM. It also gave a TGI [13] of over 100 µM, a TGI [14] of over 100 µM and a TGI [15] of over 100 µM. For the same compound, the TGI [17] was over 100 µM.

`Cc1nn(C(=O)Cc2ccccc2)c2c1C(c1ccc([N+](=O)[O-])cc1)SC(N)=N2` (stereo not given) was tested, and the TGI [2] was over 100 µM, the TGI [3] was over 100 µM and the TGI [4] was over 100 µM. It also gave a TGI [5] of over 100 µM, a TGI [7] of over 100 µM and a TGI [8] of over 100 µM. It also gave a TGI [10] of over 100 µM, a TGI [12] of over 100 µM and a TGI [14] of over 100 µM. The TGI [15] was over 100 µM and the TGI [17] was over 100 µM.

In the case of `CCCCc1nc(C)oc1C(C)C`, the TGI [1] is reported as over 100 µM, the TGI [2] is reported as over 100 µM and the TGI [3] is reported as over 100 µM. For the same compound, the TGI [4] was over 100 µM, the TGI [5] was over 100 µM and the TGI [6] was over 100 µM. The TGI [7] was over 100 µM, the TGI [8] was over 100 µM and the TGI [9] was over 100 µM. For the same compound, the TGI [10] was over 100 µM, the TGI [11] was over 100 µM and the TGI [12] was over 100 µM. It also gave a TGI [13] of over 100 µM, a TGI [14] of over 100 µM and a TGI [15] of over 100 µM. For the same compound, the TGI [17] was over 100 µM.

In the case of `COC(=O)C(CC(C)C)NC(=O)C(CCCN=C(N)N)NC(=O)OCc1ccccc1` (stereo not drawn) (Cbz-Arg-Leu-OMe; configuration not given here), the TGI [1] is reported as over 100 µM, the TGI [2] is reported as over 100 µM and the TGI [3] is reported as over 100 µM. The TGI [4] was over 100 µM, the TGI [5] was over 100 µM and the TGI [6] was over 100 µM. The TGI [7] was over 100 µM, the TGI [8] was over 100 µM and the TGI [9] was over 100 µM. It also gave a TGI [10] of over 100 µM, a TGI [11] of over 100 µM and a TGI [12] of over 100 µM. It also gave a TGI [13] of over 100 µM, a TGI [15] of over 100 µM and a TGI [17] of over 100 µM.

With `CNC(=O)N1CN(c2ccccc2)C2(CCN(Cc3ccccc3)CC2)C1=O` the TGI [1] was over 100 µM, the TGI [2] was over 100 µM and the TGI [3] was over 100 µM. It also gave a TGI [4] of over 100 µM, a TGI [5] of over 100 µM and a TGI [6] of over 100 µM. The TGI [7] was over 100 µM, the TGI [8] was over 100 µM and the TGI [9] was over 100 µM. It also gave a TGI [10] of over 100 µM, a TGI [11] of 64.1 µM and a TGI [12] of over 100 µM. The TGI [14] was over 100 µM and the TGI [15] was over 100 µM.

`Cc1ccc2nc(CN(CCO)CCO)cc(=O)n2c1` showed a TGI [2] of over 100 µM, a TGI [3] of over 100 µM and a TGI [4] of over 100 µM. The TGI [5] was over 100 µM, the TGI [6] was over 100 µM and the TGI [7] was over 100 µM. For the same compound, the TGI [8] was over 100 µM, the TGI [9] was over 100 µM and the TGI [10] was over 100 µM. For the same compound, the TGI [11] was over 100 µM, the TGI [12] was over 100 µM and the TGI [16] was over 100 µM. For the same compound, the TGI [13] was over 100 µM, the TGI [14] was over 100 µM and the TGI [15] was over 100 µM. It also gave a TGI [17] of over 100 µM.
